How the values were obtained:
[1] = target: Ribosomal protein S6 kinase beta-1 (Homo sapiens) (UniProt P23443); experiment: Inhibition of p70S6K at 33 uM
[2] = target: T1, Serine/threonine-protein kinase PAK 1 (Homo sapiens, UniProt Q13153); experiment: Inhibition of PAK1
[3] = target: T2, Serine/threonine-protein kinase Sgk1 (Homo sapiens) (UniProt O00141); experiment: Inhibition of SGK1 at 33 uM
T2 sequence (whole entry): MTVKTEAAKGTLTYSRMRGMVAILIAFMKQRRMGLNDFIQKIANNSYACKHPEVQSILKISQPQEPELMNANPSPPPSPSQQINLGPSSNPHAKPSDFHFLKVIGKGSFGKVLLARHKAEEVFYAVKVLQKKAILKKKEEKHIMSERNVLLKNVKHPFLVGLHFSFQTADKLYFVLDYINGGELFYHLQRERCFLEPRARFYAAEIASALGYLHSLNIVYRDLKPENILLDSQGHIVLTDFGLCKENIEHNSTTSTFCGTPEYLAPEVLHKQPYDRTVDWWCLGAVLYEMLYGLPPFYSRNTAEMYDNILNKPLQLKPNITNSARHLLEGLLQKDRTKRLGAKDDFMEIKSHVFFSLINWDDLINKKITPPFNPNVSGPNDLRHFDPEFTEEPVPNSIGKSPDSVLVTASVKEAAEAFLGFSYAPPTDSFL

[4] = target: T1, Serine/threonine-protein kinase PAK 1; experiment: Inhibition of PAK1 at 31 uM

T1 sequence (Q13153 whole entry): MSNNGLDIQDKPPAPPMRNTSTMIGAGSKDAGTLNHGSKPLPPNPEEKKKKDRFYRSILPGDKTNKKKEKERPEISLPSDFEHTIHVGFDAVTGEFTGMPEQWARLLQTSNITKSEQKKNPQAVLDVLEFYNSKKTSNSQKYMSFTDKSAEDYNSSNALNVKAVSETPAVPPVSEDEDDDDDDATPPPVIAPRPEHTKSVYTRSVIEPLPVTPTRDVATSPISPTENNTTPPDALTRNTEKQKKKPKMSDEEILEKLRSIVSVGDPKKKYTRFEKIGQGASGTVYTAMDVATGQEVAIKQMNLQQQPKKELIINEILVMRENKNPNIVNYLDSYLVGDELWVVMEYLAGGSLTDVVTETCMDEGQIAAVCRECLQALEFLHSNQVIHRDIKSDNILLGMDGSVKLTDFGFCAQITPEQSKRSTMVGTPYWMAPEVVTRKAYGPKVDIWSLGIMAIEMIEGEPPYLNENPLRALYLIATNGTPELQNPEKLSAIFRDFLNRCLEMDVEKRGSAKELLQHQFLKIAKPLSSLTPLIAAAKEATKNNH
Sequence of Ribosomal protein S6 kinase beta-1 (Homo sapiens) (P23443 whole entry, looked up): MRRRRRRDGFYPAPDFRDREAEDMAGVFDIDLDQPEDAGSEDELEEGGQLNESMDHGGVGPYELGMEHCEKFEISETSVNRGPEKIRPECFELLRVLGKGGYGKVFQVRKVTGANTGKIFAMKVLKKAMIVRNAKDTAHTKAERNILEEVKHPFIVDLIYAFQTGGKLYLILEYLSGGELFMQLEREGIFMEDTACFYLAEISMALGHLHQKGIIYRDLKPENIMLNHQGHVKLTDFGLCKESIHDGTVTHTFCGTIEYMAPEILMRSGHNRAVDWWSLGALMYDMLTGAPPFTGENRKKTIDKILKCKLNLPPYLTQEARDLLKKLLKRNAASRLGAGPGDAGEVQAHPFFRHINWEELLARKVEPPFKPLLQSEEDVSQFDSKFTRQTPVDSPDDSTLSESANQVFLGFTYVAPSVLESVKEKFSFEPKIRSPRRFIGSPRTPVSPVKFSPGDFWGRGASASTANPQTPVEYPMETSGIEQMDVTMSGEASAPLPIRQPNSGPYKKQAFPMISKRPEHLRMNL

## COc1c2occc2cc2ccc(=O)oc12
[1]
  inhibition: 64%

## c1nc2nc(NC3CCCCC3)ncc2[nH]1
[2]
  IC50: 31 µM

## CC(Sc1ncnc2nc[nH]c12)c1ccccc1Cl (configuration not stated)
[2]
  IC50: 23 µM

## O=C(O)c1cc(/N=N/c2ccc(S(=O)(=O)Nc3ccccn3)cc2)ccc1O
[3]
  inhibition: 70%

## Nc1nc(N)c2nc(-c3ccccc3)c(N)nc2n1
[1]
  inhibition: 95%
[3]
  inhibition: 94%
[4]
  inhibition: 100%

## CC1CC(Nc2ncnc3nc[nH]c23)CC(C)(C)C1 (configuration not stated)
[2]
  IC50: 23 µM

## c1nc(NC2CCCC2)c2nc[nH]c2n1
[2]
  IC50: 18 µM

## CCCCCSc1ncnc2nc[nH]c12
[2]
  IC50: 38 µM

## Nc1nc2[nH]cnc2c(=S)[nH]1
[4]
  inhibition: 31%

## c1nc(N2CCOCC2)c2nc[nH]c2n1
[2]
  IC50: 18 µM
